From ChEMBL document CHEMBL3351286, “Strategies to inhibit tumor associated integrin receptors: rationale for dual and multi-antagonists” (J Med Chem, 2014)
pIC50: −log10 of the molar value.

Columns and labels:
Integrin alpha-V/beta-1 = Integrin alpha-V/beta-1 (Homo sapiens, UniProt P05556+P06756); assay: Antagonist activity at alphavbeta1 integrin receptor (unknown origin) by cell-free ELISA; format: protein-complex assay
[1] = target: Integrin alpha-10/Integrin beta-1 (Homo sapiens, UniProt O75578+P05556); assay: Antagonist activity at alpha10beta1 integrin receptor (unknown origin) by cell-free ELISA; format: protein-complex assay
Integrin alpha-V/beta-5 [2] = target: T1, Integrin alpha-V/beta-5 (Homo sapiens, UniProt P06756+P18084); assay: Antagonist activity at alphavbeta5 integrin receptor (unknown origin) by cell-based ELISA
T1 sequence (P06756 31-889 limits assumed): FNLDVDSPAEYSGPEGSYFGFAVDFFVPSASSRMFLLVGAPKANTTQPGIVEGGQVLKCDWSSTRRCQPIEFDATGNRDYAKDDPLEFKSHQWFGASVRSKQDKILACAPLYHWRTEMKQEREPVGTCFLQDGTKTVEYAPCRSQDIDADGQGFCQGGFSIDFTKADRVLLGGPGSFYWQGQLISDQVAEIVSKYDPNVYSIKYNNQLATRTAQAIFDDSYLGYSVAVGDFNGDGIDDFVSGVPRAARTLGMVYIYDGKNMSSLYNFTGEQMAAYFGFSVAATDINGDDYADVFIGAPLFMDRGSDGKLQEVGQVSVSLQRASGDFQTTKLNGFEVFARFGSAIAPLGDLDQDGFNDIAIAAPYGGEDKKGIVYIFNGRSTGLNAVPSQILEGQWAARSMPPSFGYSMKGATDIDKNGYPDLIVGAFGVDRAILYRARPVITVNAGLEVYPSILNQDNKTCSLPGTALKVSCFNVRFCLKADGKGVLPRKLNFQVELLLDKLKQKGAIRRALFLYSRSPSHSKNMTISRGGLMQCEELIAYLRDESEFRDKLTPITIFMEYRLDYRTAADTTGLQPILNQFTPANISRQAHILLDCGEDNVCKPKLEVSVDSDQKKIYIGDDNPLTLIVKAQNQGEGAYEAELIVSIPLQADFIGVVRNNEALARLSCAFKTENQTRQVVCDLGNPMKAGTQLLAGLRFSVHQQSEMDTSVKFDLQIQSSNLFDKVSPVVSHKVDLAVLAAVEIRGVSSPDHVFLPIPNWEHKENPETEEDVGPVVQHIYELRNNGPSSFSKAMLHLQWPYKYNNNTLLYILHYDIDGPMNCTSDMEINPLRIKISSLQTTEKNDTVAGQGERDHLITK
T1 sequence (P06756 891-1048 limits assumed): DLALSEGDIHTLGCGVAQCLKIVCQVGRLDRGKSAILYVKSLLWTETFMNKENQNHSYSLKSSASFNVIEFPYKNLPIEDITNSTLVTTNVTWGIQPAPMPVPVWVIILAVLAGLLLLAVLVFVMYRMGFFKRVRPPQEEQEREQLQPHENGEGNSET
T1 sequence (P18084 24-799 limits assumed): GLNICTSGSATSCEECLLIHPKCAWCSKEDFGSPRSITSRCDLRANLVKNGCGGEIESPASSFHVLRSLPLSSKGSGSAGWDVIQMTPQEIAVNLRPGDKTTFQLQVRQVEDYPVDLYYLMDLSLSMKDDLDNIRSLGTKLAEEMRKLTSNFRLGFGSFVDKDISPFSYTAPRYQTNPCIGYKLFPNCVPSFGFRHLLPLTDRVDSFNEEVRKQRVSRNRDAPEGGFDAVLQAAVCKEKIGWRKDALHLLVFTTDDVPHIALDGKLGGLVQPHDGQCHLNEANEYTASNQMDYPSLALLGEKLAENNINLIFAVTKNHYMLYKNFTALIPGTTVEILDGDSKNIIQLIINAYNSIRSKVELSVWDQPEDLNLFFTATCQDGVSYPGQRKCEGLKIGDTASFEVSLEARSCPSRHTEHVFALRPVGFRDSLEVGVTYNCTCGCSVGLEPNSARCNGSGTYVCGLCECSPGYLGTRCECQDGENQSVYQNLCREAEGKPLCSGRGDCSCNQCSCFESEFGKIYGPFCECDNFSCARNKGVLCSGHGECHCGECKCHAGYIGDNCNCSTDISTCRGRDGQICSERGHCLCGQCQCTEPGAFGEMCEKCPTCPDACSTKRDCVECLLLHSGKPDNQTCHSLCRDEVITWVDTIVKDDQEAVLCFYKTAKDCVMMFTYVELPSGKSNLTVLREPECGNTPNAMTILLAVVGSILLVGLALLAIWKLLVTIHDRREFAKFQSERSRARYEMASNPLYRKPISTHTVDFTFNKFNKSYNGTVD

Integrin alpha-V/beta-8 = Integrin alpha-V/beta-8 (Homo sapiens, UniProt P06756+P26012); assay: Antagonist activity at alphavbeta8 integrin receptor (unknown origin) by cell-free ELISA; format: protein-complex assay
Integrin alpha2/beta1 = Integrin alpha2/beta1 (Homo sapiens, UniProt P05556+P17301); assay: Antagonist activity at alpha2beta1 integrin receptor (unknown origin) by cell-free ELISA; format: protein-complex assay
Sequence of Integrin alpha2/beta1 (P05556 whole entry): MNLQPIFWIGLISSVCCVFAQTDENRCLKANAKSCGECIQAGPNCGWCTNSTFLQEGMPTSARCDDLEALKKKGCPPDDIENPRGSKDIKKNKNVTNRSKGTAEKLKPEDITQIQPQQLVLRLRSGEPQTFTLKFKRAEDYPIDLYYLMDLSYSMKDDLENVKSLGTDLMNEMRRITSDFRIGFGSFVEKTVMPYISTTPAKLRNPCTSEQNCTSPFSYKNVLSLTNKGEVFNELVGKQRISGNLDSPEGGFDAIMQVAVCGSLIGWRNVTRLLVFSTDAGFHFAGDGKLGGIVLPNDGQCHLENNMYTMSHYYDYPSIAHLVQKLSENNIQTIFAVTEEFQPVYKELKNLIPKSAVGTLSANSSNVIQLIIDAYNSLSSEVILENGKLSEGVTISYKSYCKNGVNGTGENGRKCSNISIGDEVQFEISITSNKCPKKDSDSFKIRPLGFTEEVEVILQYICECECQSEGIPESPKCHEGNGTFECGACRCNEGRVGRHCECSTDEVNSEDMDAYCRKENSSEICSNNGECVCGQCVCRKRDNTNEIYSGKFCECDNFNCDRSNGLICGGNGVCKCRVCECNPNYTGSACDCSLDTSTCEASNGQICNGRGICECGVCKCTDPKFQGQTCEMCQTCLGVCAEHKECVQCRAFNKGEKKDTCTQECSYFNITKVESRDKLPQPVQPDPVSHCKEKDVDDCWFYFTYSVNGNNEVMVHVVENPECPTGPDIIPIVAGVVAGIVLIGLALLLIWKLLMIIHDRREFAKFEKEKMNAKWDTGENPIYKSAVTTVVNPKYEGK
Sequence of Integrin alpha2/beta1 (P17301 whole entry): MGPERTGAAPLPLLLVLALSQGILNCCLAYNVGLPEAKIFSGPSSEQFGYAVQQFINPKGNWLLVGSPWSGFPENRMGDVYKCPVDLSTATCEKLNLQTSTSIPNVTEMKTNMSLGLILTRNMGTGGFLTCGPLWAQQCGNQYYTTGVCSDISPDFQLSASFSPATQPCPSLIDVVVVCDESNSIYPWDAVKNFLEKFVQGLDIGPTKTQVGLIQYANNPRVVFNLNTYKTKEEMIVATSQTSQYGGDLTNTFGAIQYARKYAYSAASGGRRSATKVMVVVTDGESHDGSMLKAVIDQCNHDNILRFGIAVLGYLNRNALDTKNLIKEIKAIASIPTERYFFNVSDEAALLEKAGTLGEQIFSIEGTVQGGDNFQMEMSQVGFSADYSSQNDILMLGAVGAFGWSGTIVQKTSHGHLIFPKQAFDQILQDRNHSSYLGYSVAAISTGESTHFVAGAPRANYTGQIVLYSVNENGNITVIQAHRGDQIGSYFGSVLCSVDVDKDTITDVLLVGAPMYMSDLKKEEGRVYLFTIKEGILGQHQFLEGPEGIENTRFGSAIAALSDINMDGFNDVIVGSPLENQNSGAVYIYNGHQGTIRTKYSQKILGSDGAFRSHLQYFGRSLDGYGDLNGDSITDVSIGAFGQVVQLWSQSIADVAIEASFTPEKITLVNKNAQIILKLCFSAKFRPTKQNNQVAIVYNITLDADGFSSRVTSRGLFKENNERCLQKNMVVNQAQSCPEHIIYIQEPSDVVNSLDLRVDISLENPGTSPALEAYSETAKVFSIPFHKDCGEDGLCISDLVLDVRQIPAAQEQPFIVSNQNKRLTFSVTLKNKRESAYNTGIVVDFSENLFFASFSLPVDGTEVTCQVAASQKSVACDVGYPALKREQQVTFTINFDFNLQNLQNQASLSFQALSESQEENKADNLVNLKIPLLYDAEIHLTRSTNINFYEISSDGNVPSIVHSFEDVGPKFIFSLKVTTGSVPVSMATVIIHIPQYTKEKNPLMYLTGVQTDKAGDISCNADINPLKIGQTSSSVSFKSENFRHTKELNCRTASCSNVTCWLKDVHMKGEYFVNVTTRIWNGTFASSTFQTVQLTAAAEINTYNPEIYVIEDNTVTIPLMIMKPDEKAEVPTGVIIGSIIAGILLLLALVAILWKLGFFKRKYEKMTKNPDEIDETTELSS

[3] = target: Integrin alpha-IIb/beta-3 (Homo sapiens, UniProt P05106+P08514); assay: Antagonist activity at alpha2bbeta3 integrin receptor (unknown origin) by cell-free ELISA; format: protein-complex assay
Integrin alpha-V/beta-6 = Integrin alpha-V/beta-6 (Homo sapiens, UniProt P06756+P18564); assay: Antagonist activity at alphavbeta6 integrin receptor (unknown origin) by cell-free ELISA; format: protein-complex assay
Integrin alpha-5/beta-1 = Integrin alpha-5/beta-1 (Homo sapiens, UniProt P05556+P08648); assay: Antagonist activity at alpha5beta1 integrin receptor (unknown origin) by cell-free ELISA; format: protein-complex assay
Integrin alpha-V/beta-5 [4] = target: T1, Integrin alpha-V/beta-5; assay: Antagonist activity at alphavbeta5 integrin receptor (unknown origin) by cell-free ELISA; format: protein-complex assay
Integrin alpha-V/beta-3 = Integrin alpha-V/beta-3 (Homo sapiens, UniProt P05106+P06756); assay: Antagonist activity at alphavbeta3 integrin receptor (unknown origin) by cell-free ELISA; format: protein-complex assay
Integrin alpha-4/beta-7 = target: T2, Integrin alpha-4/beta-7 (Homo sapiens, UniProt P13612+P26010); assay: Antagonist activity at alpha4beta7 integrin receptor (unknown origin) by cell-free ELISA; format: protein-complex assay
T2 sequence (P13612 whole entry): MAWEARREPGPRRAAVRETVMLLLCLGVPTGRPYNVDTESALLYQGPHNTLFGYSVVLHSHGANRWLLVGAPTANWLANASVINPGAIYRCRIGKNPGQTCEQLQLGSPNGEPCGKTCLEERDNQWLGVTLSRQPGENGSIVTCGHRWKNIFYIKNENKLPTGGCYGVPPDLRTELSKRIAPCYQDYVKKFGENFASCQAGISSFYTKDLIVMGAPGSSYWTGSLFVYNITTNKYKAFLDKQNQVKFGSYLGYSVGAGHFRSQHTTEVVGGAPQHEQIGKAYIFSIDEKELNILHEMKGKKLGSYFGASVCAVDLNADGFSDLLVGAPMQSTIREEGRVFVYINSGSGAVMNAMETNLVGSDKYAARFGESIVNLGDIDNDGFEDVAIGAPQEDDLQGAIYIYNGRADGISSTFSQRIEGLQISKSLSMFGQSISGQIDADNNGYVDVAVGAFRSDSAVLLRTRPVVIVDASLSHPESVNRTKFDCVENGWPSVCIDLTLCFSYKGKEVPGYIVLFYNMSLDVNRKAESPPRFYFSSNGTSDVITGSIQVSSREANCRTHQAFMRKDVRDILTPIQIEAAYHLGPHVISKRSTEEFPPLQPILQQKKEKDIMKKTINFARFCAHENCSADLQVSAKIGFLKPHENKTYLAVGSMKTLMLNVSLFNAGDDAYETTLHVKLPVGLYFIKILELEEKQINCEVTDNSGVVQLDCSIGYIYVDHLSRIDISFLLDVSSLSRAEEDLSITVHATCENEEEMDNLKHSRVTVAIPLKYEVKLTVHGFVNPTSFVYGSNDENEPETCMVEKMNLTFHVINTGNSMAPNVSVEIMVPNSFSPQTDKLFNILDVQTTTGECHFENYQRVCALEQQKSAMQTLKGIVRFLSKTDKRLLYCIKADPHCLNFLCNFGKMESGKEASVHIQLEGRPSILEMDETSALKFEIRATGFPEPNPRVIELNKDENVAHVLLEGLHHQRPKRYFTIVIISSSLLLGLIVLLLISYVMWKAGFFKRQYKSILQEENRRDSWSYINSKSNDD
T2 sequence (P26010 whole entry): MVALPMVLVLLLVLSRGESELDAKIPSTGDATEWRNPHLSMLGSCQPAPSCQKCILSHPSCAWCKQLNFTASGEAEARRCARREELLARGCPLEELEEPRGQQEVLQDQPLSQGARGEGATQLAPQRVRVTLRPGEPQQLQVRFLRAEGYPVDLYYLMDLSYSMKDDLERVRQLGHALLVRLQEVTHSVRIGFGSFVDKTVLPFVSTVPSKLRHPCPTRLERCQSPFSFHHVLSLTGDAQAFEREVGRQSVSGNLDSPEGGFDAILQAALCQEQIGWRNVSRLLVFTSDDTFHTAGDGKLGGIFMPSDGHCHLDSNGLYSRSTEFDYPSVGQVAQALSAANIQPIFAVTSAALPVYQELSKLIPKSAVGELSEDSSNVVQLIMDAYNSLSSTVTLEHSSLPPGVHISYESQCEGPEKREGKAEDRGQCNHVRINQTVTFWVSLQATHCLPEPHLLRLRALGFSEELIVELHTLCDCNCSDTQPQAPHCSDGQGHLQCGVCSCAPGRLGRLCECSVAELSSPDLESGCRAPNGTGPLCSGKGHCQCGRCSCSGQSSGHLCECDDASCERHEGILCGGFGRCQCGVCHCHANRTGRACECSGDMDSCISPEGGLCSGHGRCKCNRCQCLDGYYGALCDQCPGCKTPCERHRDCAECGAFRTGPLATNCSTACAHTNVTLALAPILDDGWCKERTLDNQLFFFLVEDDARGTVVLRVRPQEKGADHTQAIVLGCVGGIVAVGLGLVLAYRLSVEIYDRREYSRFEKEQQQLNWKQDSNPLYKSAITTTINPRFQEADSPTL

Sequence of Integrin alpha-V/beta-1 (P05556 21-798 limits assumed): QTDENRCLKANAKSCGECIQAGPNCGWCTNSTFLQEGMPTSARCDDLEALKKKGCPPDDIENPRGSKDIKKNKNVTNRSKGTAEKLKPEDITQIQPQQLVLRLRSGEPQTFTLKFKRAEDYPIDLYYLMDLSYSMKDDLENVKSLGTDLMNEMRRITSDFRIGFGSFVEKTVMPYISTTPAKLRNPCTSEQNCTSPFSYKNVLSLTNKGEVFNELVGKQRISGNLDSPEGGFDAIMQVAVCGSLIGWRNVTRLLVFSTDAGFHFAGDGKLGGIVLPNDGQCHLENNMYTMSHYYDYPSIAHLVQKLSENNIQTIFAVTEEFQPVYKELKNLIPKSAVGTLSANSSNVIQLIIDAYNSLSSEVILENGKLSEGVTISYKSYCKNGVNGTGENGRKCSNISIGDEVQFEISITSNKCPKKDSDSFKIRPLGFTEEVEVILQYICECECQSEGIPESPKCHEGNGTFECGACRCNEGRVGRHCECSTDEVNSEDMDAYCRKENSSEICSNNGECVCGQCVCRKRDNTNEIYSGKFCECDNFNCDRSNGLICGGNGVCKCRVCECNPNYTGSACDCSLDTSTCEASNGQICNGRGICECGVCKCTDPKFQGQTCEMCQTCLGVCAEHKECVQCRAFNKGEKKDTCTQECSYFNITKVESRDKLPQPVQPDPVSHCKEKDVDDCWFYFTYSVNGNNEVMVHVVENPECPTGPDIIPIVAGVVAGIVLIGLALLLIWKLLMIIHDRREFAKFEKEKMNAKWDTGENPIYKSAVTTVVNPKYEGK
Sequence of Integrin alpha-V/beta-1 (P06756 31-889 limits assumed): as the sequence (P06756 31-889 limits assumed) above
Sequence of Integrin alpha-V/beta-1 (P06756 891-1048 limits assumed): as the sequence (P06756 891-1048 limits assumed) above

SMILES	pIC50 (Integrin alpha-V/beta-1)	pIC50 [1]	pIC50 (Integrin alpha-V/beta-5 [2])	pIC50 (Integrin alpha-V/beta-8)	pIC50 (Integrin alpha2/beta1)	pIC50 [3]	pIC50 (Integrin alpha-V/beta-6)	pIC50 (Integrin alpha-5/beta-1)	pIC50 (Integrin alpha-V/beta-5 [4])	pIC50 (Integrin alpha-V/beta-3)	pIC50 (Integrin alpha-4/beta-7)
CC(C)(C)c1cc(Br)cc([C@H](CC(=O)O)NC(=O)CNC(=O)c2cc(O)cc(NC3=NCC(O)CN3)c2)c1 (some centres undefined)	8.74	< 5.30	7.21	9.70	< 5.30	< 5.30	–	–	–	–	–
COc1ccc(S(=O)(=O)N[C@@H](CNc2nc(C)nc(N3CCC(c4ccc5c(n4)NCCC5)CC3)c2C)C(=O)O)cc1 [GLPG-0187]	8.89	–	–	8.92	< 5.00	–	8.85	8.11	8.70	8.43	< 5.00
